Consider 22 compounds from patent US9199983B2, “3-aryl-6-aryl-[1,2,4]triazolo[4,3-α]pyridines as inhibitors of cell proliferation and the use thereof” (priority 2010, dated 2015).

The pIC50 is −log10 of the IC50, conventionally taken in molar units.

pIC50: −log10 of the molar value. Counter-ions that a name gives are not always drawn.

In test [1] the test system is Human lung cancer cell line A549. Kind of test: MTT cancer cell cytotoxicity assay, A549. The test is classed as cell-based. To be noted: Homo sapiens, A549 cells, 48-72 h. The procedure: (§1) Identification of 3-(2-methoxyphenyl)-6-(4-methoxyphenyl)-[1,2,4]triazolo[4,3-a]pyridine and analogs as inhibitors of cell proliferation that were evaluated with standard MTT cancer cell cytotoxicity assay (IC50)
(§2) Human lung cancer cell line A549, breast cancer cell line T47D, liver cancer cell lines HepG2 and SMMC7721 as well as a mouse melanoma cell line B16F10 were used in the study. The cells were cultured in corresponding growth media recommended by American Type Culture Collection (ATCC) with the supplementation of penicillin G (100 U/ml)/streptomycin (100 µg/ml), and 10% fetal bovine serum (Hangzhou Sijiqing Biological Engineering Materials, Co., Ltd. China) at 37° C. in a humidified atmosphere containing 5% CO2. Cells at about 80% confluency were harvested by trypsinization. Cells were centrifuged, re-suspended in fresh growth media and counted. Corresponding numbers of cells were seeded to 96-well cell culture plates (HepG2 cell, T-47D and A549 cells at 3000 cells/well, SMMC-7721 cells at 5000 cells/well and B16F10 cells at 2000 cells/well) in a total volume of […]. Cells were incubated in CO2 incubator over night to allow the cells to attach. In next day, […] of medium containing testing (from 10 μM to 1 nM) or reference compounds was added to each well of the cells. Media without compound were used as 100% control. Cells were treated with each concentration of compounds in triplicates to ensure data accuracy. Cells were incubated with compounds in CO2 incubator for an additional 48-72 h at 37° C. After incubation, cells were removed from the CO2 incubator and […] of 5 mg/ml MTT (3-(4,5-dimethylthiazole-2-yl)-2,5-diphenyltetrazoliumbromide, Sigma) solution in PBS was added to each well. Cells were returned to CO2 incubator and incubated for additional 4 h. After the incubation, media were removed by aspiration and […] DMSO was added to each well. Plates were sealed with aluminum foil and shaked mildly on an orbital shaker for 10 min at room temperature. The absorption was measured at 550 nm with a plate reader (Varioskan Flash, Thermo Fisher Scientific) with 660 nm reading used as background control. The relative absorbance readings were calculated by subtracting readings at 660 nm from that at 550 nm. The relative absorbance was plotted again the concentrations of the testing compounds and the plots were fitted with a one-site lg(IC50) equation using Prism 5 software (GraphPad Software, Inc). The equation used in the curve fitting is as follows: relative absorbance reading=background reading+(maximal reading−brackground reading)/(1+10 ^(compound concentration-log IC50)). The background reading used in the calculation was obtained with 100% cell death using a reference anticancer drug, whereas the maximal reading was obtained in the well with no added compound. The IC50 value calculated from the equation represents the cytotoxic potency of a particular compound.

Test [2] concerns liver cancer cell line HepG2. Kind of test: MTT cancer cell cytotoxicity assay, HepG2. The test is classed as cell-based, human. Particulars: Homo sapiens, HepG2 cells, 48-72 h. The procedure: as §1, §2
The subject of test [3] is liver cancer cell line SMMC7721. Kind of test: MTT cancer cell cytotoxicity assay, SMMC7721. Type of test: cell-based, human. To be noted: Homo sapiens, SMMC-7721, SMMC7721 cells, 48-72 h. The procedure: as §1, §2
For test [4], the system named is breast cancer cell line T47D. The test is described as follows: MTT cancer cell cytotoxicity assay, T47D. The test is classed as cell-based, human. To be noted: Homo sapiens, T47D cells, 48-72 h. The procedure:
as §1, §2

The test system of test [5] is mouse melanoma cell line B16F10. The test is described as follows: MTT cancer cell cytotoxicity assay, B16F10. The test is classed as cell-based. Particulars: Mus musculus, B16-F10, B16F10 cells, 48-72 h. As to the method: as §1, §2

For the compound `COc1ccc(-c2ccc3nnc(-c4ccc(C(F)(F)F)cc4OC)n3c2)cc1` [Example 60, 3-(2-Methoxy-4-trifluoromethylphenyl)-6-(4-methoxyphenyl)-[1,2,4]triazolo[4,3-a]pyridine], the pIC50 in test [1] was 7.04; in test [2], 7.39; in test [3] it was 7.74; in test [4] it was 7.17; in test [5], 7.43.

For the compound `CCOc1ccc(-c2ccc3nnc(-c4ccccc4OC)n3c2)cc1` [Example 38, 6-(4-Ethoxyphenyl)-3-(2-methoxyphenyl)-[1,2,4]triazolo[4,3-a]pyridine], the pIC50 was 7.31 in test [1]; 7.10 in test [2]; 7.57 in test [3]; 7.13 in test [4]; 6.89 in test [5].

For the compound `COc1ccccc1-c1nnc2ccc(-c3ccc([N+](=O)[O-])c(OC)c3)cn12` [Example 21, 6-(3-Methoxy-4-nitrophenyl)-3-(2-methoxyphenyl)-[1,2,4]triazolo[4,3-a]pyridine], the pIC50 is < 5.00 in test [1], 5.37 in test [2], < 5.00 in test [3] and < 5.00 in test [4].

Regarding `COc1ccc(-c2ccc3nnc(-c4cc(OC)c(OC)cc4OC)n3c2)cc1` [Example 69, 6-(4-Methoxyphenyl)-3-(2,4,5-trimethoxyphenyl)-[1,2,4]triazolo[4,3-a]pyridine], the pIC50 in test [1] is 6.08; in test [2], 6.04; in test [3], 6.51; in test [4], 6.08.

On to `COc1ccc(-c2cn3c(-c4ccccc4OC)nnc3cc2C)cc1` [Example 54, 3-(2-Methoxyphenyl)-6-(4-methoxyphenyl)-7-methyl-[1,2,4]triazolo[4,3-a]pyridine], for which the negative-log IC50 (pIC50) in test [1] is 6.37; in test [2] it was 6.87; in test [3], 7.03; in test [4], 6.82.

With `COc1ccc(-c2ccc3nnc(-c4ccccc4N(C)C)n3c2)cc1` [Example 80, 3-(2-Dimethylaminophenyl)-6-(4-methoxyphenyl)-[1,2,4]triazolo[4,3-a]pyridine], the pIC50 in test [1] was 6.93; in test [2] it was 7.09; in test [3] it was 7.46; in test [4] it was 7.21.

Regarding `COc1cc(-c2ccc3nnc(-c4ccccc4OC)n3c2)ccc1O` [Example 56, 6-(4-Hydroxy-3-methoxyphenyl)-3-(2-methoxyphenyl)-[1,2,4]triazolo[4,3-a]pyridine], the pIC50 in test [1] was < 5.00; in test [2], 6.15; in test [3], 5.74; in test [4], 5.83.

For `COc1ncc(-c2ccc3nnc(-c4ccccc4OC)n3c2)cn1` [Example 18, 3-(2-Methoxyphenyl)-6-(2-methoxypyrimidin-5-yl)-[1,2,4]triazolo[4,3-a]pyridine], the pIC50 in test [1], in test [2], in test [3] and in test [4] was < 5.00 in each case.

As for `COc1ccccc1-c1nnc2ccc(-c3ccc(O)c(C)c3)cn12` [Example 41, 6-(4-Hydroxy-3-methylphenyl)-3-(2-methoxyphenyl)-[1,2,4]triazolo[4,3-a]pyridine], the pIC50 is 6.67 in test [1], 6.81 in test [2], 6.93 in test [3] and 6.89 in test [4].

On to `COc1ccccc1-c1nnc2ccc(-c3ccc(C)c(Cl)c3)cn12` [Example 19, 6-(3-Chloro-4-methylphenyl)-3-(2-methoxyphenyl)-[1,2,4]triazolo[4,3-a]pyridine], for which the negative logarithm of the IC50 (pIC50) in test [1] was 6.66; in test [2], 6.80; in test [3], 7.17; in test [4], 6.77.

Take `COc1ccc(-c2ccc3nnc(-c4ccccc4OC)n3c2)cn1` [Example 15, 3-(2-Methoxyphenyl)-6-(6-methoxypyridin-3-yl)-[1,2,4]triazolo[4,3-a]pyridine]: the pIC50 in test [1] was 5.99; in test [2], 5.76; in test [3], 5.96; in test [4], 5.70.

Regarding `COc1ccccc1-c1nnc2ccc(-c3ccc(O)cc3)cn12` [Example 13, 6-(4-Hydroxyphenyl)-3-(2-methoxyphenyl)-[1,2,4]triazolo[4,3-a]pyridine], the pIC50 was 5.63 in test [1], 5.89 in test [2], 6.00 in test [3] and 6.18 in test [4].

Take `COc1ccccc1-c1nnc2ccc(-c3ccc(C)c(C)c3)cn12` [Example 32, 6-(3,4-Dimethylphenyl)-3-(2-methoxyphenyl)-[1,2,4]triazolo[4,3-a]pyridine]: the pIC50 was 6.80 in test [1], 7.08 in test [2], 7.41 in test [3] and 6.83 in test [4].

For the compound `COc1ccc(-c2ccc3nnc(-c4ccc(OC)c(OC)c4OC)n3c2)cc1` [Example 72, 6-(4-Methoxyphenyl)-3-(2,3,4-trimethoxyphenyl)-[1,2,4]triazolo[4,3-a]pyridine], the pIC50 was < 5.00 in test [1], < 5.00 in test [2], 5.38 in test [3] and 5.09 in test [4].

On to `COc1ccc(-c2ccc3nnc(-c4ccc(N)cc4OC)n3c2)cc1` [Example 87, 3-(4-Amino-2-methoxyphenyl)-6-(4-methoxyphenyl)-[1,2,4]triazolo[4,3-a]pyridine hydrochloride], for which the pIC50 was 6.15 in test [1], 6.45 in test [2], 6.76 in test [3] and 6.51 in test [4].

For the compound `COc1cc(-c2ccc3nnc(-c4ccccc4OC)n3c2)ccc1N` [Example 43, 6-(4-Amino-3-methoxyphenyl)-3-(2-methoxyphenyl)-[1,2,4]triazolo[4,3-a]pyridine], the pIC50 in test [1] is < 5.00; in test [2], 5.79; in test [3] it was 5.66; in test [4] it was 5.65.

As for `COc1ccccc1-c1nnc2ccc(-c3ccc(N)cc3)cn12` [Example 47, 6-(4-Aminophenyl)-3-(2-methoxyphenyl)-[1,2,4]triazolo[4,3-a]pyridine hydrochloride], the pIC50 in test [1] was 5.98; in test [2], 6.14; in test [3], 6.44; in test [4], 6.72.

On to `COc1ccc(-c2ccc3nnc(-c4c(OC)ccc(Br)c4OC)n3c2)cc1` [Example 65, 3-(3-Bromo-2,6-dimethoxyphenyl)-6-(4-methoxyphenyl)-[1,2,4]triazolo[4,3-a]pyridine], for which the pIC50 in test [1] was 5.61; in test [2] it was 6.03; in test [3] it was 6.70; in test [4], 6.24.

For `COc1ccc(-c2ccc3nnc(-c4c(F)cccc4OC)n3c2)cc1` [Example 63, 3-(6-Fluoro-2-methoxyphenyl)-6-(4-methoxyphenyl)-[1,2,4]triazolo[4,3-a]pyridine], the negative-log IC50 (pIC50) in test [1] was 6.76; in test [2], 6.63; in test [3], 7.44; in test [4] it was 6.83.

Turning to `COc1ccc(-c2ccc3nnc(-c4ccccc4OC)n3c2)c(C)c1` [Example 8, 6-(4-Methoxy-2-methylphenyl)-3-(2-methoxyphenyl)-[1,2,4]triazolo[4,3-a]pyridine], the pIC50 in test [1] is 7.04; in test [2], 7.26; in test [3], 7.62; in test [4] it was 6.99.

As to `COc1ccc(-c2ccc3nnc(-c4ccccc4C)n3c2)cc1` [Example 78, 6-(4-Methoxyphenyl)-3-(2-methylphenyl)-[1,2,4]triazolo[4,3-a]pyridine], the pIC50 was 6.21 in test [1], 6.58 in test [2], 6.96 in test [3] and 6.89 in test [4].

On to `COc1ccccc1-c1nnc2ccc(-c3cc(C)c(OC)c(C)c3)cn12` [Example 30, 6-(3,5-Dimethyl-4-methoxyphenyl)-3-(2-methoxyphenyl)-[1,2,4]triazolo[4,3-a]pyridine], for which the pIC50 is < 5.00 in test [1], 5.63 in test [2], 5.76 in test [3] and 5.29 in test [4].
